The text below walks through data of US8889699B2, “5-fluorouracil derivative” (Delta-Fly Pharma, Inc., priority 2009, dated 2014).

Data set [1] deals with human gastric cancer strain (SC-2). The conditions noted are these: 14 days, day 15, Test Example 3. As for the experimental part:
The resulting product was stirred with a stirrer at room temperature for about 10 minutes. […] Thereafter, ultrasonic treatment was performed under ice cooling for about 5 minutes, thereby obtaining a BOF-A2 drug liquid to be used at a dose of 14 mg/kg/day, 21 mg/kg/day, or 28 mg/kg/day. • (f) Experiment: The human gastric cancer strain (SC-2) was subcutaneously transplanted into the back of a BALB/cA-nu mouse and preliminarily proliferated therein. The proliferated strain was extracted, cut into about 2 mm square pieces with scissors in physiological saline, and subcutaneously inoculated to the right axillary region of mice of the same strain, 5 to 6 weeks of age, using a transplantation needle. […] Then, drug administration was initiated from the next day. Each of the test liquids shown in (a) to (e) above was administered orally to the mice in each of the test drug groups using a sonde for oral administration at a dose of 0.1 ml per 10 g body weight once a day for 14 continuous days. In the same manner as the above, the cancer-bearing mice in the control group were subjected to oral administration of only 0.5% HPMC liquid for 14 continuous days.
The tumor volume of each mouse in each group before the initiation of the treatment, on day 3, day 5, day 8 (1 week after), day 11, and day 15 (2 weeks after), i.e., after termination of the administration, was calculated using Equation 1 below, and respective relative tumor volume (RTV) relative to the tumor volume at the time of initiation of the treatment was calculated. In relation to the antitumor effect, the average value of the tumor proliferation inhibition ratio (IR; %) was calculated from the average tumor volume of each treatment group on day 15 (after termination of the treatment) relative to that of the control group on day 15, using Equation 2. […] Along therewith, a weight change ratio was calculated from the body weight of the mice at the time of the termination of the drug administration relative to the body weight of the mice at the time of the initiation of the administration, using Equation 3. […] Tumor volume(mm^3)=(major axis)×(minor axis)^2×½ Equation 1: Tumor proliferation inhibition ratio(IR, %)=[1−(average tumor volume of treatment group)/(average tumor volume of control group)]×100 Equation 2: Average weight change ratio(%)=[(average weight on Day 15)−(average weight on Day 1)]/(average weight on Day 1)×100 Equation 3: […]
The resulting product was stirred with a stirrer at room temperature for about 10 minutes. […] The proliferated strain was extracted, cut into about 2 mm square pieces with scissors in physiological saline, and subcutaneously inoculated to the right axillary region of mice of the same strain, 5 to 6 weeks of age, using a transplantation needle. […] Then, drug administration was initiated from the next day. Each of the test liquids shown in (a) to (c) above was administered orally to the mice in each of the test drug groups using a sonde for oral administration at a dose of 0.1 ml per 10 g body weight once a day for 14 continuous days. In the same manner as the above, the cancer-bearing mice in the control group were subjected to oral administration of only 0.5% HPMC liquid for 14 continuous days.
The tumor volume of each mouse in each group before the initiation of the treatment, on day 3, day 5, day 8 (1 week after), day 11, and day 15 (2 weeks after), i.e., after termination of the administration, was calculated using Equation 1 below, and respective relative tumor volume (RTV) relative to the tumor volume at the time of initiation of the treatment was calculated. In relation to the antitumor effect, the average value of the tumor proliferation inhibition ratio (IR; %) was calculated from the average tumor volume of each treatment group on day 15 (after termination of the treatment) relative to that of the control group on day 15, using Equation 2.

Another data set deals with sarcoma 180 cells. In words: Inhibition of intracellular phosphorylation of 5-FU in cancer cells. The data set is classed as cell-based, mouse. The conditions noted are these: for inhibition at 10 µM / inhibition at 100 µM: Mus musculus, Sarcoma-180, 0.5 h. The protocol:
(§1) • (a) Test liquid preparation 1: Compound I-2 or I-10 of the present invention was dissolved to a concentration of 1 mM in cold physiological saline. The resulting product was further diluted 10-fold with physiological saline, yielding a 100-μM solution. • (b) Test liquid preparation 2: As an OPRT inhibitor, which inhibits the phosphorylation of 5-FU, citrazinic acid (Citra.A.) was dissolved to a concentration of 1 mM in cold physiological saline, and further diluted 10-fold with physiological saline, yielding a 100-μM solution. • (c) Preparation of cancer cell suspension: Ascites-type sarcoma 180 cells were preliminarily transplanted intraperitoneally into an ICR mouse and proliferated therein for use in the test as raw (intact) cells. The proliferated cells were isolated and then washed with physiological saline. […] Immediately after the completion of the reaction, 4 mL of a cold Hanks solution was added to the reaction solution, and the cells were washed and separated by centrifugation. After this procedure was repeated twice, 2 mL of a cold 5% trichloroacetic acid (TCA) solution was added to the cell pellet to disrupt the cells, and 5-FU and its nucleotide metabolites were extracted. Subsequently, a portion of the nucleic acid extract was applied to a silica gel 60F254 plate and developed with a mixed liquid comprising chloroform-methanol-acetic acid (17:3:1) to isolate the nucleotide moiety. The radioactivity thereof was measured and the concentration of 5-FU phosphorylation was measured.
as §1, with “1: Compounds I-9, I-11, I-12, and I-13” for “1: Compound I-2 or I-10”, “invention were separately” for “invention was”, “saline. Each of the” for “saline. The”, “resulting products” for “resulting product”, “acid” for “acid (Citra.A.)”

Setting [2] is: Conc. 10 μM, 30 min. Incubation, 5-FU 2 μM, Table 6.
Where [3] appears, read: Conc. 100 μM, 30 min. Incubation, 5-FU 2 μM, Table 6.
Where [4] appears, read: Conc. 10 μM, 30 min. Incubation, 5-FU 2 μM, Table 6, read-out: Inhibition (%) of phosphorylation of 5-FU.
Where [5] appears, read: Conc. 100 μM, 30 min. Incubation, 5-FU 2 μM, Table 6, read-out: Inhibition (%) of phosphorylation of 5-FU.
Where [6] appears, read: concentration of 10 μM, reaction for 30 minutes, read-out: percent inhibition of intracellular phosphorylation of 5-FU.
[7] abbreviates: concentration of 100 μM, reaction for 30 minutes, read-out: percent inhibition of intracellular phosphorylation of 5-FU.

Each structure is given as a SMILES string. Read-outs that look alike come from different tables or passages of the source.

With `CCOCn1cc(F)c(=O)n(C(=O)c2cccc(C(=O)Oc3nc(OC(=O)c4ccccc4)ccc3C#N)c2)c1=O` [BOF-A2, reference compound], the “Average weight change (%)” value in data set [1] (14 mg/kg/day oral) was 3.16%; in data set [1] (21 mg/kg/day oral), −7.48%; in data set [1] (28 mg/kg/day oral), −20.58%. In addition, the “Tumor proliferation inhibition ratio (%)” value in data set [1] (14 mg/kg/day oral) is recorded as 51.0%; in data set [1] (21 mg/kg/day oral) it was 70.9%; in data set [1] (28 mg/kg/day oral), 72.4%.

`CCOCn1cc(F)c(=O)n(C(=O)c2cccc(C(=O)Oc3cc(O)c(Cl)cn3)c2)c1=O` [Compound 8a, 3-{3-[4-hydroxy-5-chloro-2-pyridyloxycarbonyl]benzoyl}-1-ethoxymethyl-5-fluorouracil]: the “Average weight change (%)” value in data set [1] (11.5 mg/kg/day oral) is recorded as 0.34%; in data set [1] (17.3 mg/kg/day oral) it was 2.32%; in data set [1] (23.0 mg/kg/day oral) it was −18.11%. The “Tumor proliferation inhibition ratio (%)” value in data set [1] (11.5 mg/kg/day oral) came to 52.8%; in data set [1] (17.3 mg/kg/day oral), 58.1%; in data set [1] (23.0 mg/kg/day oral), 77.7%.

For orientation: inhibition means the change of the read-out against control, counted positive when it falls. On to `CCOCn1cc(F)c(=O)n(C(=O)c2cccc(C(=O)Oc3cc(OC(=O)c4cc(OC(=O)C(C)(C)C)nc(OC(=O)C(C)(C)C)c4)c(Cl)cn3)c2)c1=O` [Compound I-12, 3-{3-[4-(2,6-dipivaloyloxyisonicotinoyloxy)-5-chloro-2-pyridyloxycarbonyl]benzoyl}-1-ethoxymethyl-5-fluorouracil], for which the “RNA Fraction” value in the data set with sarcoma 180 cells (setting [2]) is on record as 28.15 pmol/1 × 10^7 cells; in the data set on sarcoma 180 cells (setting [3]) it was 25.48 pmol/1 × 10^7 cells. The inhibition at 10 µM was 55.5% with sarcoma 180 cells (setting [4]) and 35 to 57% in the data set with sarcoma 180 cells (setting [6]). The values for the inhibition at 100 µM with sarcoma 180 cells (setting [5]) and in the data set with sarcoma 180 cells (setting [7]) were 59.8% and 56 to 63%, respectively.

As to `CCOCn1cc(F)c(=O)n(C(=O)c2cccc(C(=O)Oc3cc(OC(=O)c4ccc(OC(=O)c5ccccc5)nc4OC(=O)c4ccccc4)c(Cl)cn3)c2)c1=O` [Compound I-13, 3-{3-[4-(2,6-dibenzoyloxynicotinoyloxy)-5-chloro-2-pyridyloxycarbonyl]benzoyl}-1-ethoxymethyl-5-fluorouracil], the results for the “RNA Fraction” value with sarcoma 180 cells (setting [2]) and in the data set with sarcoma 180 cells (setting [3]) were 26.63 pmol/1 × 10^7 cells and 25.68 pmol/1 × 10^7 cells, respectively. Besides, the inhibition at 10 µM in the data set on sarcoma 180 cells (setting [4]) is 58.1%; with sarcoma 180 cells (setting [6]) it was 35 to 57%. Moreover, the inhibition at 100 µM in the data set on sarcoma 180 cells (setting [5]) was 59.4%; with sarcoma 180 cells (setting [7]), 56 to 63%.
